Values after ≈ are worked out from the molar mass of the structure shown. Read-outs that look alike come from different tables or passages of the source.
Columns and labels:
[1] = Fecal elimination of fluralaner after oral administration, European otter; assay type: in vivo, Lutra lutra; settings: European otter n = 1
Method: (§1) Based on the species present at the Paris Zoo, the animals selected to be part of the study are described in Table 1.
(§2) Each individual received 1–3 tablets of fluralaner (Bravecto®, formulations from 112.5 mg to 1,400 mg per tablet), based on the dose determined (Table 2) and the actual BW of the animal on day 0 (D0). Tablets were administered with the food. Tablets were not divided, according to the summary of product characteristics and the dose administered was adjusted as closely as possible to the theoretical dose calculated. The recommended bracket doses (25–56 mg/kg in a 20-kg dog) were used as a guideline (adjusted to the body weight of the animals) to ensure that the actual dose administered would remain in the acceptable margin. For instance, for the Iberian Wolf: using the dose range 25–56 mg/kg gave a D-reference of [500–1,120] mg, thus c = D-ref/P-ref = [0.76–1.69], i.e., D-target = [763–1,698] mg, resulting in a reference range of [21.9–48.6] mg.kg^−1. The actual doses administered were between 28 and 30 mg.kg^−1. This was checked for all species.
(§3) Feces were sampled on the floor, in priority on concrete ground in indoor facilities when animals were isolated. Fecal sampling was performed by keepers with gloves, transferred to sterile vials, then saved at −80°C until transfer to the lab.
(§4) For feces analysis, well-homogenized samples were weighed and dried at 40°C overnight to eliminate water. 200 mg of the dried sample were weighed, 80 μL of IS solution (0.5 μg/mL solution), 0.52 mL of water, 200 mg QuEChERS salts and 1 mL of acetonitrile were added in a 5 mL plastic centrifuge tube. The sample was then mixed well by vortexing for 2 min and then centrifuged at 12,000 rpm for 5 min.
(§5) The upper clear layer solutions were transferred to auto-sampler vials and placed in the auto-sampler at 10°C for LC–MS/MS analysis. All results are reported in μg.kg^−1 dry weight (dw).
(§6) All pharmacokinetic data were computed using a non-linear model and “PK solver” in Microsoft-excel®. This approach has been used by Kilp et al. ([21]) and considered satisfactory by comparison with a standard PK software such as WinNonLIn®.
(§7) Only Lion and Mountain lion data (3 individuals+negative control for each species) are presented in Figure 2 as mean ± SD of the fecal concentration of fluralaner vs. time post administration. When data were LOD < Data<LOQ, an average value of 4 has been used (for graphical and PK analysis purposes). When concentrations were < LOD, ½ LOD value was used for the same purposes.

[2] = Oral Bravecto in zoo carnivores, all treated animals (tolerance, fecal residues); assay type: in vivo
Method: as §1, §2, §3

[3] = cited from earlier work
[4] = set-up: method as in PMID 33480547; settings: black bears, orally at 25 mg.kg^−1; cited from earlier work
dog and cat fleas = settings: cited from earlier work
[5] = Fecal elimination of fluralaner after oral administration, Fossa; assay type: in vivo, Cryptoprocta ferox; settings: Fossa n = 1
Method: as §1, §2, §3, §4, §5, §6, §7

[6] = Fecal elimination of fluralaner after oral administration, Jaguar; assay type: in vivo, Panthera onca; settings: Jaguar n = 1
Method: as §1, §2, §3, §4, §5, §6, §7

[7] = Fecal elimination of fluralaner after oral administration, Mountain lion; assay type: in vivo, Puma concolor
Method: as §1, §2, §3, §4, §5, §6, §7

[8] = Fecal elimination of fluralaner after oral administration, Lion; assay type: in vivo, Panthera leo
Method: as §1, §2, §3, §4, §5, §6, §7

[9] = set-up: method as in PMID 36265636; settings: treated dogs; cited from earlier work
[10] = set-up: method as in ref 27 = [27]; 27. VSDB Veterinary substances DataBase consulted on June 1st, ( 2022 ) Available at: http://sitem.herts.ac.uk/aeru/vsdb/index.htm; settings: VSDB; cited from earlier work
[11] = set-up: method as in PMID 33407820; settings: wombats, pour on, doses of 25 or 85 mg.kg^−1; cited from earlier work
[12] = cited from earlier work; remark: listed apart in the source
[13] = Fecal elimination of fluralaner after oral administration, Iberian wolf; assay type: in vivo, Canis lupus; settings: Iberian wolf n = 1
Method: as §1, §2, §3, §4, §5, §6, §7

[14] = Fecal elimination of fluralaner after oral administration, Suricate; assay type: in vivo, Suricatta suricatta; settings: feces, Suricate n = 1
Method: as §1, §2, §3, §4, §5, §6, §7

honey bees = system: honey bees; set-up: method as in ref 10 = [10]; 10. CVMP ( 2017 ) CVMP assessment report for EXZOLT (EM EA/V/C/004344/0000), EMA/377159/2017, Available at: https://www.ema.europa.eu/en/documents/assessment-report/exzolt-epar-public-assessment-repor; settings: cited from earlier work
sarcoptic mange = system: sarcoptic mange; set-up: method as in PMID 30895701; settings: Raccoon dogs, one oral dose; cited from earlier work
[15] = set-up: method as in PMID 33733534; settings: cited from earlier work
Daphnia magna = system: Daphnia magna; set-up: method as in ref 10 = [10]; 10. CVMP ( 2017 ) CVMP assessment report for EXZOLT (EM EA/V/C/004344/0000), EMA/377159/2017, Available at: https://www.ema.europa.eu/en/documents/assessment-report/exzolt-epar-public-assessment-repor; settings: cited from earlier work
[16] = set-up: method as in PMID 28103942; settings: 221 dogs treated; cited from earlier work
[17] = cited from earlier work; remark: listed apart in the source
[18] = Fecal elimination of fluralaner after oral administration, South American coati; assay type: in vivo, Nasua nasua; settings: South American coati n = 1
Method: as §1, §2, §3, §4, §5, §6, §7

[19] = fecal elimination, oral 36.8 mg.kg^−1
[20] = fecal elimination, oral 26.3 mg.kg^−1
[21] = fecal elimination, oral 34.5 mg.kg^−1
[22] = fecal elimination, Mountain lion n = 3, mean ± SD, oral 20.8–25.0 mg.kg^−1
[23] = feces, Mountain lion n = 3, mean ± SD, oral 20.8–25.0 mg.kg^−1
[24] = fecal elimination, Lion n = 3, mean ± SD, oral 16.0–24.1 mg.kg^−1
[25] = feces, Lion n = 3, mean ± SD, oral 16.0–24.1 mg.kg^−1
[26] = fecal elimination, oral 28.6 mg.kg^−1
[27] = fecal elimination, oral 52.1 mg.kg^−1

Cc1cc(C2=NOC(c3cc(Cl)cc(Cl)c3)(C(F)(F)F)C2)ccc1C(=O)NCC(=O)NCC(F)(F)F (stereo not shown) [fluralaner, Fluralaner]
MRT [1, 19]: 16 days | t1/2 [1, 19]: 2 days | Cmax ([1]; feces, Bravecto tablet oral with food, 36.8 mg.kg^−1, rough estimate): 2,137 μg.kg-^1 dry weight | AUC (D0-D112) ([1]; feces, oral 36.8 mg.kg^−1): 41,301 d* μg.kg-^1 dry weight | AUC(0-infini) ([1]; feces, oral 36.8 mg.kg^−1): 41,354 d* μg.kg-^1 dry weight | Last detection day ([1]; feces, oral 36.8 mg.kg^−1): 42 days | tmax ([1]; feces, oral 36.8 mg.kg^−1, rough estimate): 7 days | Adverse reaction during the course of the study ([2]; all animals treated, oral Bravecto tablets, allometrically scaled dose): No adverse reaction was noted | Concentrations detected in fecal samples throughout the study ([2]; feces, highest value): up to 44,000 μg/kg | Duration of elimination in feces as an active substance ([2]; our study): up to 3 months | Effect of food on bioavailability ([3]; dogs fed prior to the administration of the drug): doubled | Half-life ([3]; dogs, oral administration): 11 to 13 days | Bioavailability, topical administration ([3]; dogs, topical): 22–25% | Half-life [4]: 4.9 days | Efficacy period (dog and cat fleas; dogs and cats): 12 week | Duration of insecticidal effect on dog and cat fleas (dog and cat fleas; reference not given): 12 weeks | MRT [5, 20]: 1 days | t1/2 [5, 20]: 3 days | Cmax ([5]; feces, Bravecto tablet oral with food, 26.3 mg.kg^−1, rough estimate, residues in control animal in same cage): 370,295 μg.kg-^1 dry weight | AUC (D0-D112) ([5]; feces, oral 26.3 mg.kg^−1): 1,373,277 d* μg.kg-^1 dry weight | AUC(0-infini) ([5]; feces, oral 26.3 mg.kg^−1): 1,373,579 d* μg.kg-^1 dry weight | Last detection day ([5]; feces, oral 26.3 mg.kg^−1): 35 days | tmax ([5]; feces, oral 26.3 mg.kg^−1, rough estimate): 1 days | MRT [6, 21]: 15 days | t1/2 [6, 21]: 8 days | Cmax ([6]; feces, Bravecto tablets oral with food, 34.5 mg.kg^−1, rough estimate): 16,089 μg.kg-^1 dry weight | AUC (D0-D112) ([6]; feces, oral 34.5 mg.kg^−1): 145,337 d* μg.kg-^1 dry weight | AUC(0-infini) ([6]; feces, oral 34.5 mg.kg^−1): 145,752 d* μg.kg-^1 dry weight | Last detection day ([6]; feces, oral 34.5 mg.kg^−1): 72 days | tmax ([6]; feces, oral 34.5 mg.kg^−1, rough estimate): 7 days | MRT [7, 22]: 3 ± 1 days | t1/2 [7, 22]: 6 ± 1 days | Cmax ([7]; feces, Mountain lion n = 3, mean ± SD, Bravecto tablets oral with food, 20.8–25.0 mg.kg^−1, rough estimate): 12,909 ± 4,954 μg.kg-^1 dry weight | AUC (D0-D112) [7, 23]: 54,158±19,755 d* μg.kg-^1 dry weight | AUC(0-infini) [7, 23]: 54,786±19,755 d* μg.kg-^1 dry weight | Last detection day ([7]; feces, Mountain lion n = 3, oral 20.8–25.0 mg.kg^−1): 49 days | tmax ([7]; feces, Mountain lion n = 3, oral 20.8–25.0 mg.kg^−1, rough estimate): 1 days | MRT [8, 24]: 8 ± 1 days | t1/2 [8, 24]: 12 ± 1 days | Cmax ([8]; feces, Lion n = 3, mean ± SD, Bravecto tablets oral with food, 16.0–24.1 mg.kg^−1, rough estimate): 44,880 ± 28,616 μg.kg-^1 dry weight | AUC (D0-D112) [8, 25]: 232,796±95,614 d* μg.kg-^1 dry weight | AUC(0-infini) [8, 25]: 234,203±95,339 d* μg.kg-^1 dry weight | Last detection day ([8]; feces, Lion n = 3, oral 16.0–24.1 mg.kg^−1): 89 days | tmax ([8]; feces, Lion n = 3, oral 16.0–24.1 mg.kg^−1, rough estimate): 1 days | Measured values in urine samples [9]: 1 µg/L | Hydrolysis [10]: not degraded by hydrolysis | Lipophilicity [10]: lipophilic | Safety [11]: safe | Administered dose eliminated unchanged in the feces [12]: 90% | Administered dose eliminated unchanged in the feces ([12]; rats, dogs and chickens): up to 90% | Eliminated via the feces as the unchanged compound ([12]; reference not given): > 90% | MRT [13, 26]: 6 days | t1/2 [13, 26]: 5 days | Cmax ([13]; feces, Bravecto tablet oral with food, 28.6 mg.kg^−1, rough estimate): 620 μg.kg-^1 dry weight | AUC (D0-D112) ([13]; feces, oral 28.6 mg.kg^−1): 7,218 d* μg.kg-^1 dry weight | AUC(0-infini) ([13]; feces, oral 28.6 mg.kg^−1): 7,260 d* μg.kg-^1 dry weight | Last detection day ([13]; feces, oral 28.6 mg.kg^−1): 31 days | tmax ([13]; feces, oral 28.6 mg.kg^−1, rough estimate): 1 days | Cmax ([14]; Bravecto tablet oral with food, 125 mg.kg^−1, rough estimate, residues in control animal in same cage): 15 μg.kg-^1 dry weight | AUC (D0-D112) ([14]; oral 125 mg.kg^−1): 105 d* μg.kg-^1 dry weight | Last detection day ([14]; oral 125 mg.kg^−1): 14 days | tmax ([14]; oral 125 mg.kg^−1, rough estimate): 14 days | Toxicity classification (honey bees): highly toxic | Time to cure from sarcoptic mange (sarcoptic mange): 7 days | Protein-bound [15]: > 99% | LC50 (Daphnia magna; Daphnia magna, assessment report for EXZOLT): 0.047 mg/L (≈ 0.0845 µM) | No Observed Effect Concentration (NOEC) for reproduction (Daphnia magna; Daphnia magna): 0.047 µg/L | Toxicity classification (Daphnia magna; aquatic invertebrates (Daphnia magna)): highly toxic | Dogs displaying alopecia [16]: 4% | Dogs displaying vomiting [16]: 6% | DT50 in soil ([17]; CVMP assessment report): ~1,000 days | DT50 in soil ([17]; VSDB): 60 days | DT50 in aquatic environments ([17]; aerobic waters): 3 to 4 days | DT50 in soil ([17]; sandy loams): up to 989 days | DT50 in sediments ([17]; sediments): 112 to 195 days | MRT [18, 27]: 38 days | t1/2 [18, 27]: 26 days | Cmax ([18]; feces, Bravecto tablet oral with food, 52.1 mg.kg^−1, rough estimate): 453 μg.kg-^1 dry weight | AUC (D0-D112) ([18]; feces, oral 52.1 mg.kg^−1): 7,688 d* μg.kg-^1 dry weight | AUC(0-infini) ([18]; feces, oral 52.1 mg.kg^−1): 8,998 d* μg.kg-^1 dry weight | Last detection day ([18]; feces, oral 52.1 mg.kg^−1): 82 days | tmax ([18]; feces, oral 52.1 mg.kg^−1, rough estimate): 1 days

Source: paper PMC11362066, “Fecal elimination of fluralaner in different carnivore species after oral administration” (Frontiers in Veterinary Science, 2024)
